Assays:
[1] = tested on: Human Peripheral Blood Mononuclear Cells (PBMC); assay: PBMC cell assay (IL-1β assay with human PBMC, LPS stimulated, ELISA); format: cell-based; conditions: LPS 5 ng/ml, 16-18 hr
Excerpt: IL-L1β Assay with a Mixed Population of Human Peripheral Blood Mononuclear Cells (PBMC) or Enriched Adherent Mononuclear Cells
Processing of pre-IL-1β by ICE can be measured in cell culture using a variety of cell sources. Human PBMC obtained from healthy donors provides a mixed population of lymphocyte subtypes and mononuclear cells that produce a spectrum of interleukins and cytokines in response to many classes of physiological stimulators. Adherent mononuclear cells from PBMC provides an enriched source of normal monocytes for selective studies of cytokine production by activated cells.
An initial dilution series of test compound in DMSO or ethanol is prepared, with a subsequent dilution into RPMI-10% FBS media (containing 2 mM L-glutamine, 10 mM HEPES, 50 U and 50 ug/ml pen/strep) respectively to yield drugs at 4× the final test concentration containing 0.4% DMSO or 0.4% ethanol. The final concentration of DMSO is 0.1% for all drug dilutions. A concentration titration which brackets the apparent Ki for a test compound determined in an ICE inhibition assay is generally used for the primary compound screen.
Generally 5-6 compound dilutions are tested and the cellular component of the assay is performed in duplicate, with duplicate ELISA determinations on each cell culture supernatant.
Buffy coat cells isolated from one pint human blood (yielding 40-45 ml final volume plasma plus cells) are diluted with media to 80 ml and LeukoPREP separation tubes (Becton Dickinson) are each overlaid with 10 ml of cell suspension. After 15 min centrifugation at 1500-1800 xg, the plasma/media layer is aspirated and then the mononuclear cell layer is collected with a Pasteur pipette and transferred to a 15 ml conical centrifuge tube (Corning). […] The PBMC pellet is resuspended in a small volume of media, the cells are counted and adjusted to 6×10^6 cells/ml. […]
The skilled practitioner realizes that values obtained in cell assays, such as those described herein, can depend on multiple factors. The values may not necessarily represent fine quantitative results.

Human whole blood = assay: Whole blood assay for IL-1β production; format: cell-based; conditions: 16-18 hr
Description: Whole Blood Assay for IL-1β Production
The whole blood assay is a simple method for measuring the production of IL-1β (or other cytokines) and the activity of potential inhibitors. The complexity of this assay system, with its full complement of lymphoid and inflammatory cell types, spectrum of plasma proteins and red blood cells is an ideal in vitro representation of human in vivo physiologic conditions.
Set incubator or water bath at 30° C. Aliquot 0.25 ml of blood into 1.5 ml eppendorf tubes, making sure to invert the whole blood sample tubes after every two aliquots. Differences in replicates may result if the cells sediment and are not uniformly suspended. Use of a positive displacement pipette will also minimize differences between replicate aliquots.
Prepare drug dilutions in sterile pyrogen-free saline by serial dilution. A dilution series which brackets the apparent Ki for a test compound determined in an ICE inhibition assay is generally used for the primary compound screen. For extremely hydrophobic compounds, prepare compound dilutions in fresh plasma obtained from the same blood donor or in PBS-containing 5% DMSO to enhance solubility.
Add 25 μl test compound dilution or vehicle control and gently mix the sample. Then add 5.0 μl LPS solution (250 ng/ml stocked prepared fresh: 5.0 ng/ml final concentration LPS), and mix again. Incubate the tubes at […] in a water bath for 16-18 hr with occasional mixing. Alternatively, the tubes can be placed in a rotator set at 4 rpm for the same incubation period. This assay should be set up in duplicate or triplicate with the following controls: negative control—no LPS; positive control—no test inhibitor; vehicle control—the highest concentration of DMSO or compound solvent used in the experiment. Additional saline is added to all control tubes to normalize volumes for both control and experimental whole blood test samples.
After the incubation period, whole blood samples are centrifuged for 10 minutes at ˜2000 rpm in the microfuge, plasma is transferred to a fresh microfuge tube and centrifuged at 1000×g to pellet residual platelets if necessary. Plasma samples may be stored frozen at −70° C. prior to assay for cytokine levels by ELISA.
R & D Systems (614 McKinley Place N.E. Minneapolis, Minn. 55413) Quantikine kits may be used for measurement of IL-1β and TNF-α. The assays are performed according to the manufacturer's directions. IL-1β levels of ˜1-5 ng/ml in positive controls among a range of individuals may be observed. A 1:200 dilution of plasma for all samples is usually sufficient for experiments for ELISA results to fall on the linear range of the ELISA standard curves. It may be necessary to optimize standard dilutions if you observe differences in the whole blood assay. Nerad, J. L. et al., J. Leukocyte Biol., 52, pp. 687-692 (1992).

[2] = Table 4, mature IL-1β in supernatant

O=C[C@H](CC(=O)O)NC(=O)CN1C(=O)C(NC(=O)OCc2ccccc2)N=C(c2ccccc2)c2ccccc21 (stereo partly drawn) [Example 1, (3S)-3-[3(R,S)-1,3-Dihydro-2-oxo-5-phenyl((benzyloxycarbonyl)amino)-2H-1,4-benzodiazepin-1-acetylamino]-4-oxobutyric acid]
IC50 ([1]; Table 2, mature IL-1β in supernatant): 20 µM

Nc1c(Cl)cc(C(=O)NC2N=C(c3ccccc3)c3ccccc3N(CC(=O)N[C@H](C=O)CC(=O)O)C2=O)cc1Cl (some centres unmarked) [Example 7]
IC50 (Human whole blood; Table 2, LPS 5.0 ng/ml): > 20 µM

O=C[C@H](CC(=O)O)NC(=O)CN1C(=O)C(NC(=O)c2nccc3ccccc23)N=C(c2ccccc2)c2ccccc21 (some centres unmarked) [Example 11]
IC50 (Human whole blood; Table 4, LPS 5.0 ng/ml): 9 µM

Nc1ccc(C(=O)NC2N=C(c3ccccc3)c3ccccc3N(CC(=O)N[C@H](C=O)CC(=O)O)C2=O)cc1Cl (some centres unmarked) [Example 18]
IC50 (Human whole blood; Table 2, LPS 5.0 ng/ml): > 20 µM

Cc1cc(C(=O)NC2N=C(c3ccccc3)c3ccccc3N(CC(=O)N[C@H](C=O)CC(=O)O)C2=O)cc(C)c1O (some centres unmarked) [Example 19]
IC50 (Human whole blood; Table 2, LPS 5.0 ng/ml): 10 µM

O=C[C@H](CC(=O)O)NC(=O)CN1C(=O)C(NC(=O)c2cc(Cl)c(O)c(Cl)c2)N=C(c2ccccc2)c2ccccc21 (some centres unmarked) [Example 21]
IC50 (Human whole blood; Table 2, LPS 5.0 ng/ml): 10 µM

COc1ccc(Cl)cc1S(=O)(=O)NC1N=C(c2ccccc2)c2ccccc2N(CC(=O)N[C@H](C=O)CC(=O)O)C1=O (some centres unmarked) [Example 39]
IC50 (Human whole blood; Table 4, LPS 5.0 ng/ml): > 20 µM

COc1cccc(OC)c1C(=O)C(=O)NC1N=C(c2ccccc2)c2ccccc2N(CC(=O)N[C@H](C=O)CC(=O)O)C1=O (some centres unmarked) [Example 49]
IC50 [1, 2]: > 8 µM

O=C[C@H](CC(=O)O)NC(=O)CN1C(=O)C(NC(=O)c2ccc(O)c(Cl)c2)N=C(c2ccccc2)c2ccccc21 (some centres unmarked) [Example 50]
IC50 [1, 2]: > 8 µM

Cc1cc(C(=O)NC2N=C(c3ccccc3)c3cc(NC=O)ccc3N(CC(=O)N[C@H](C=O)CC(=O)O)C2=O)cc(C)c1O (some centres unmarked) [Example 58]
IC50 (Human whole blood; Table 4, LPS 5.0 ng/ml): > 20 µM

Cc1cc(C(=O)NC2N=C(c3ccccc3)c3cc(N)ccc3N(CC(=O)N[C@H](C=O)CC(=O)O)C2=O)cc(C)c1O (some centres unmarked) [Example 59]
IC50 (Human whole blood; Table 4, LPS 5.0 ng/ml): 9.2 µM

— patent publication US6573259B2, “Inhibitors of interleukin-1β converting enzyme” (Vertex Pharmaceuticals Incorporated, priority 1996, dated 2003)
